# How the values were obtained:
# adrenergic receptors = conditions: in vitro; cited from earlier work
# [1] = system: obesity in non-depressed outpatients; assay: Obesity Reduction Test: randomized double-blind comparison of venlafaxine and placebo capsules; format: in vivo, humans
# Description: A randomized double-blind comparison of venlafaxine and placebo capsules was tested as a treatment for obesity in non-depressed outpatients. […] Each participant in the comparison weighed more than 20%, but less than 100%, above the mean value for sex, height and bone structure according to the 1983 Metropolitan Height and Weight Table. The women in the comparison of childbearing potential received a negative pregnancy test result and agreed to use medically acceptable forms of contraception throughout the period covered by the comparison.
# Subsequently the dose was increased from 50 mg/day to 150 mg/day through study day 14. On study day 15 the dose was increased to 225 mg/day (3 tablets 3 times a day) and this dose was continued for the remainder of the 70 day study. The patients in both groups were also given instructions to decrease their food intake by 20% and to increase their exercise by the same amount. These directives were given to standardize dietary instructions and to try to prevent patients from starting “crash” diets or exercise programs. A specific diet was not prescribed.
# Comparisons within groups were performed on changes from baseline weight and body mass index. Body mass index was computed according to the following formula: [formula]
# histaminergic receptors = conditions: in vitro; cited from earlier work
# norepinephrine uptake = conditions: cited from earlier work
# monoamine oxidase = conditions: cited from earlier work
# dopamine reuptake = conditions: relative to serotonin and norepinephrine uptake; cited from earlier work
smiles,measurement,setting,value
"COc1ccc(C(CN(C)C)C2(O)CCCCC2)cc1 (centres unmarked) [venlafaxine, 1-[2-(dimethylamino)-1-(4-methoxyphenyl)ethyl] cyclohexanol]",affinity for adrenergic receptors,adrenergic receptors,virtually no affinity
same,"mean weight decreases and mean percent decreases from baseline, significance",[1]; beginning at week 1,consistent statistically significant mean weight decreases and mean percent decreases from baseline beginning at week 1
same,mean percent decrease from baseline (body weight),"[1]; week 10, venlafaxine up to 225 mg/day",3.6%
same,mean decrease in body weight,"[1]; week 10, venlafaxine up to 225 mg/day, change from baseline",7.5 lb
same,affinity for histaminergic receptors,histaminergic receptors,virtually no affinity
same,inhibition of norepinephrine uptake,norepinephrine uptake,potent inhibition
same,inhibitory activity on monoamine oxidase,monoamine oxidase,no inhibitory activity
same,inhibition of dopamine reuptake,dopamine reuptake,"To a lesser degree, venlafaxine also inhibits dopamine reuptake"

# Reference: patent US6555586B2 (Wyeth, priority 1993, dated 2003)
